Laboratory results published in US11571418B2, “Platinum compounds that inhibit constitutive STAT3 signaling and induce cell cycle arrest and apoptosis of malignant cells” (H. LEE MOFFITT CANCER CENTER AND RESEARCH INSTITUTE, INC., priority 2011, dated 2023).

Assays:
Stat3 [1] = target: T1, Stat3 (Mus musculus, UniProt P42227); experiment: In vitro Stat3 DNA-binding activity assay, EMSA with hSIE probe; details: pre-incubated 30 min before hSIE probe
T1 construct: Nuclear extract preparation from NIH3T3 stimulated by rhIL-6, NIH3T3/hEGFR stimulated by rhEGF; endogenous in cells; host or cells: NIH3T3/hEGFR fibroblasts stimulated with rhEGF (nuclear extract)
Protocol: (§1) FIGS. 1A-1E. Inhibition of in vitro Stat3 DNA-binding activity by a platinum complex. Nuclear extracts or cell lysates containing activated Stat1, Stat3 and Stat5, or E2F1 prepared from NIH3T3/hEGFR that are stimulated with EGF or Sf-9 insect cells that are infected with baculovirus expressing Stat1, Stat3, Stat5, or E2F1, respectively, were treated with or without the indicated concentrations of platinum complex, PLATINUM-401 or Cisplatin, for 30 min at room temperature prior to incubation with radiolabeled oligonucleotide probes, and subjected to EMSA analysis. (FIG. 1A) (i) Stat1 and Stat3 binding activities to hSIE probe, (ii) Stat1 and Stat5 binding activities to MGFe probe, and (iii) plot of % oligonucleotide probe-STAT:STAT complexes versus concentration of PLATINUM-401. […] Positions of STAT: STAT-DNA complexes in gel are labeled. In (A) to (C), the control lanes represent DMSO (vehicle)-treatment.
(§2) Nuclear extract preparation and gel shift assays—Nuclear extract preparation from NIH3T3 stimulated by rhIL-6, NIH3T3/hEGFR stimulated by rhEGF, v-Src-transformed fibroblasts (NIH3T3/v-Src) or tumor cell lines and electrophoretic mobility shift assay were carried out as previously described (Turkson et al., 1998; Garcia et al., 1997; Yu et al., 1995). The ^32P-labeled oligonucleotide probes used are hSIE (high affinity sis-inducible element from the c-fos gene, m67 variant, 5′-[…]) (SEQ ID NO:1) that binds Stat1 and Stat3 (Garcia et al., 1997; Wagner et al., 1990) and MGFe (mammary gland factor element from the bovine β-casein gene promoter, 5′-AGATTTCTAGGAATTCAA) (SEQ ID NO:2) for Stat1 and Stat5 binding (49,50). Except where indicated, inhibitor compound was pre-incubated with the nuclear extract for 30 min at room temperature prior to incubation with radiolabeled probe.
Compounds from the NCI 2000 diversity set were screened for inhibition of Stat3 signaling in an in vitro DNA-binding activity assay based on analysis by electrophoretic mobility shift assay (EMSA). A platinum (IV) complex, PLATINUM-401 (NSC 295558) (FIG. 1E), was identified as a potent inhibitor of Stat3 and was further characterized for its anti-Stat3 properties. In the in vitro DNA-binding activity assay, nuclear extracts of equal total protein containing active Stat1, Stat3 and Stat5 were pre-incubated with different concentrations of PLATINUM-401 for 30 min prior to incubation with a [^32P]-labeled oligonucleotide, the m67 high affinity sis-inducible element (hSIE) probe that binds Stat1 and Stat3, or the mammary gland factor element (MGFe) that binds Stat1 and Stat5. Samples were then subjected to EMSA.

Stat1 = target: T2, Stat1 (Mus musculus, UniProt P42225); experiment: In vitro Stat1 DNA-binding activity assay, EMSA with hSIE or MGFe probe; details: pre-incubated 30 min before probe
T2 construct: Nuclear extract preparation from NIH3T3 stimulated by rhIL-6, NIH3T3/hEGFR stimulated by rhEGF; endogenous in cells; host or cells: NIH3T3/hEGFR fibroblasts stimulated with rhEGF (nuclear extract)
T2 sequence (P42225 2-749 limits assumed): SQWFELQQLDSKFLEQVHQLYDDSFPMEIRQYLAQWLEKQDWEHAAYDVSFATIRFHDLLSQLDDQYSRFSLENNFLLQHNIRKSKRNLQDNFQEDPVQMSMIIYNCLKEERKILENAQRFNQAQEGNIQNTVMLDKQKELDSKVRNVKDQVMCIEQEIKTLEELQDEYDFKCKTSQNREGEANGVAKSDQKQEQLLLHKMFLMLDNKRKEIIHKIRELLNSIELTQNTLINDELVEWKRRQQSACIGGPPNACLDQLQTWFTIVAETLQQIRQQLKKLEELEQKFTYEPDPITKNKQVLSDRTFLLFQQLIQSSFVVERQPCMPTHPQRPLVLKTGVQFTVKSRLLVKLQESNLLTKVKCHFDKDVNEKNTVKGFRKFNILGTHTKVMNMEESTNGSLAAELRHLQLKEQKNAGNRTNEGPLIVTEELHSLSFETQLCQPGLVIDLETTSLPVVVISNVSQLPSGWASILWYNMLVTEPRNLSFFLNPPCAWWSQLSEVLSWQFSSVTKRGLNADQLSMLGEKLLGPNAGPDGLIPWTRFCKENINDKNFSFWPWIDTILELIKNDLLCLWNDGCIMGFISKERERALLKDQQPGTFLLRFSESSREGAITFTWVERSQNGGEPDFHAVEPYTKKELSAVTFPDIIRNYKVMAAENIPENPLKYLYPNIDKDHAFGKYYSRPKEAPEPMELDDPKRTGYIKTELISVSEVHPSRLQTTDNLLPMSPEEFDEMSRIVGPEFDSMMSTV
Protocol: as §1, §2
Compounds from the NCI 2000 diversity set were screened for inhibition of Stat3 signaling in an in vitro DNA-binding activity assay based on analysis by electrophoretic mobility shift assay (EMSA). […]

Stat5 = experiment: In vitro Stat5 DNA-binding activity assay, EMSA with MGFe probe; set-up: species or system mouse; details: pre-incubated 30 min before MGFe probe
Protocol: as §1
Nuclear extract preparation and gel shift assays—Nuclear extract preparation from NIH3T3 stimulated by rhIL-6, NIH3T3/hEGFR stimulated by rhEGF, v-Src-transformed fibroblasts (NIH3T3/v-Src) or tumor cell lines and electrophoretic mobility shift assay were carried out as previously described (Turkson et al., 1998; Garcia et al., 1997; Yu et al., 1995). […]

E2F1 = target: T3, E2F1 (Homo sapiens, UniProt Q01094); experiment: In vitro E2F1 DNA-binding activity assay, EMSA with DHFR promoter probe; details: cell lysates pre-incubated with compound before DHFR promoter probe
T3 construct: made in house; host or cells: Sf-9 insect cells infected with baculovirus
Protocol: as §1
In control studies, the effect of PLATINUM-401 was evaluated on the DNA-binding activity of the E2F1 protein that is unrelated to STATs.

Stat3 [2] = target: T1, Stat3; details: Turkson et al., 2004b; cited from earlier work

T1 sequence (P42227 2-770 limits assumed): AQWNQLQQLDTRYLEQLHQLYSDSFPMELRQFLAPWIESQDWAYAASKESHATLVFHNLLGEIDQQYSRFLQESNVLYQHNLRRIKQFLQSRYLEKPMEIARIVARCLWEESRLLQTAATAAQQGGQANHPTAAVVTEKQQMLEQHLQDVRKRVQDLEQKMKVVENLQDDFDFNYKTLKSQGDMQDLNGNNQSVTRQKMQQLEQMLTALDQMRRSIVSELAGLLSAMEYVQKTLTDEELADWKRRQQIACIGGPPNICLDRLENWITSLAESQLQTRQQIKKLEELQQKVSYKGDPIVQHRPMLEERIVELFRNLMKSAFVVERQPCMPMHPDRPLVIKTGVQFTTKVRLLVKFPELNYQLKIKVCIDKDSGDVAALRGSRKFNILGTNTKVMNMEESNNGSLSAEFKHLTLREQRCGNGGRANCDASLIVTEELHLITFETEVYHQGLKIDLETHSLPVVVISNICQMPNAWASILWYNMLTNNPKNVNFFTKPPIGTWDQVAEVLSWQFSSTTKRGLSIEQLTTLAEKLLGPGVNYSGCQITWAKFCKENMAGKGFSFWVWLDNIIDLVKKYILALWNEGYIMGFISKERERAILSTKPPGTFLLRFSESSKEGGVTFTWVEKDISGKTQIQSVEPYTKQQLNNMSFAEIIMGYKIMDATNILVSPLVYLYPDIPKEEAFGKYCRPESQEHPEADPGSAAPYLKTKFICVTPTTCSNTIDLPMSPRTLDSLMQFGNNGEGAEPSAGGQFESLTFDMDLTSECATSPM
T3 sequence (Q01094 whole entry, species assumed): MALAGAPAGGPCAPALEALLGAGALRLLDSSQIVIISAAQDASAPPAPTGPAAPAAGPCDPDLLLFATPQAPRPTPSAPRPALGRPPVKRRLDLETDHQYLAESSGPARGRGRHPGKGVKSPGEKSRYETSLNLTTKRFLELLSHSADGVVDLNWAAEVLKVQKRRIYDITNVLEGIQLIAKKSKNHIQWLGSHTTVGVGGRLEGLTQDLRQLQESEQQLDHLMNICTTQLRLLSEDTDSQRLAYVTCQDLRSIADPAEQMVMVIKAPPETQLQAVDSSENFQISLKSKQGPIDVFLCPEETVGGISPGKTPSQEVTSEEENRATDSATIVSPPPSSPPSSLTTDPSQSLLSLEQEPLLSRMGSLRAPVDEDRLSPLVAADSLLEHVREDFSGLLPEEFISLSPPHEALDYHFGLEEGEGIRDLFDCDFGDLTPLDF

N.N.[Cl][Pt][Cl] [Cisplatin, reference compound]
effect on DNA-binding activity of Stat3:Stat3 homodimer (Stat3 [1]): no detectable effect | effect on DNA-binding activity of Stat1:Stat1 homodimer (Stat1): no detectable effect | effect on DNA-binding activity of Stat5:Stat5 dimer (Stat5): no detectable effect | effect on E2F1 DNA-binding activity (E2F1): no detectable effect | effect on Stat3 activity (Stat3 [2]): no effect
